Here are results for four molecules from PMC4404333, “Identification of Selective Inhibitors of the Plasmodium falciparum Hexose Transporter PfHT by Screening Focused Libraries of Anti-Malarial Compounds” (PLoS ONE, 2015).

Like-named read-outs stand apart in the source and are kept apart here.

One assay has as its system P. falciparum strain 3D7. Description: Proliferation of intraerythrocytic P. falciparum 3D7 (SYBR Green, 72 h). In kind it is cell-based, Plasmodium falciparum. The settings on record: chloroquine sensitive strain 3D7, 72 h, read-out: Pf 3D7 EC50. The method, then:
(§1) Two P. falciparum strains were used in this study and were provided by the MR4 Unit of the American Type Culture Collection (ATCC, Manassas, VA). Those two strains were the chloroquine sensitive strain 3D7 and the K1 strain that is resistant to chloroquine, pyrimethamine, and sulfadoxine.
(§2) Asynchronous parasites were maintained in culture based on the method of Trager. Parasites were grown in presence of fresh group O-positive erythrocytes (Key Biologics, LLC) in Petri dishes at a hematocrit of 4–6% in RPMI based media (RPMI 1640 supplemented with 0.5% AlbuMAX II, 25 mM HEPES, 25 mM NaHCO3 (pH 7.3), 100 μg/mL hypoxanthine, and 5 μg/mL gentamycin). Cultures were incubated at 37°C in a gas mixture of 90% N2, 5% O2, 5% CO2. For EC50 determinations, 20 μL of RPMI 1640 with 5 μg/mL gentamycin were dispensed per well in an assay plate (Corning 384-well microtiter plate, clear bottom, tissue culture treated, catalog no. 8807BC). 40 nL of compound, previously serially diluted in a separate 384-well white polypropylene plate (Corning, catalog no. 8748BC), was dispensed to the assay plate by hydrodynamic pin transfer (FP1S50H, V&P Scientific Pin Head) and then 20 μL of a synchronized culture suspension (1% rings, 4% hematocrit) was added to each well, thus making a final hematocrit and parasitemia of 2% and 1%, respectively. Assay plates were incubated for 72 h, and the parasitemia was determined by a method previously described: Briefly, 10 μL of the assay solution in PBS (10X SYBR Green I, 0.5% v/v triton X-100, 0.5 mg/mL saponin) was added to each well. Assay plates were shaken for 1 min, incubated in the dark for 90 min, and read with an Envision (Perkin Elmer) spectrophotometer at Ex/Em of 485 nm/535 nm. EC50s were calculated with a custom program (RISE, Robust Investigation of Screening Experiments) using a four-parameter logistic equation.

The next assay has as its system P. falciparum strain K1. Description: Proliferation of intraerythrocytic P. falciparum K1 (SYBR Green, 72 h). In kind it is cell-based, Plasmodium falciparum. Conditions: multi-drug resistant strain K1, 72 h, read-out: Pf K1 EC50. The method, then: as §1, §2
For assay [1], the system named is BJ cell line (human foreskin fibroblasts). Kind of assay: Mammalian cell drug susceptibility assay (Cell Titer Glo, 72 h). In kind it is cell-based. The method, then: The BJ cell line (human foreskin fibroblasts), which express GLUT1 [26], was purchased from the ATTC and cultured according to recommendations. 1000 exponentially growing cells were plated per well (25 μL) in white polystyrene flat bottom sterile 384-well tissue culture treated plates (Corning), and incubated overnight at 37°C in a humidified 5% CO2 incubator. DMSO inhibitor stock solutions were pin-transferred (V&P Scientific) the following day. Plates were placed back in the incubator for 72 h incubation and equilibrated at room temperature for 20 min before addition of 25 μL Cell Titer Glo (Promega) to each well. Plates were shaken on an orbital shaker for 2 min at 500 rpm. Luminescence was read after 15 min on an Envision plate reader (Perkin Elmer). EC50 values were calculated with a custom program (RISE, Robust Investigation of Screening Experiments) using a four-parameter logistic equation.

The test system of assay [2] is P. falciparum strain 3D7 intraerythrocytic forms. Set-up: method as in PubChem web site, http://pubchem.ncbi.nlm.nih.gov/. Conditions: reported values; ref PubChem web site, http://pubchem.ncbi.nlm.nih.gov/; read-out: EC50 3D7 In vitro; cited from earlier work.
The mark [3] stands for this setting: Plasmodium falciparum, 3D7, 72 h.
Setting [4] is: Plasmodium falciparum, K1, 72 h.

As usually defined, the EC50 is the midpoint of the concentration-response curve. `COc1cc(Nc2ccc3cc(S(=O)(=O)N4CCCCC4C)ccc3n2)cc(OC)c1OC` (stereo not drawn) [Compound 1]: the 50% effective concentration (EC50) in the assay on P. falciparum strain 3D7 (setting [3]) is about 1 µM; in the assay with P. falciparum strain 3D7, 1.4 µM; in the assay with P. falciparum strain K1 (setting [4]), about 1 µM; in the assay with P. falciparum strain K1 it was 0.97 µM; in assay [1], over 23 µM; in assay [2] it was 1240 nM.

`CC1CCCCN1S(=O)(=O)c1ccc2nc(Nc3ccccc3)ccc2c1` (stereo not drawn) [Compound 10]: the EC50 in the assay with P. falciparum strain 3D7 (setting [3]) was over 10 µM; with P. falciparum strain 3D7, 15 µM; in the assay with P. falciparum strain K1 (setting [4]), over 10 µM; in the assay with P. falciparum strain K1 it was 12 µM; in assay [1], over 25 µM.

Take `CC1CCCCN1S(=O)(=O)c1ccc2nc(Nc3ccc(C#N)cc3)ccc2c1` (stereo not drawn) [Compound 12]: the EC50 in the assay on P. falciparum strain 3D7 (setting [3]) is over 10 µM; in the assay on P. falciparum strain 3D7, over 16 µM; in the assay on P. falciparum strain K1 (setting [4]), over 10 µM; in the assay with P. falciparum strain K1, over 16 µM; in assay [1], over 26 µM.

On to `CC1CCCCN1S(=O)(=O)c1ccc2nc(Nc3cccc(C#N)c3)ccc2c1` (stereo not drawn) [Compound 13], for which the concentration giving a half-maximal response (EC50) in the assay with P. falciparum strain 3D7 (setting [3]) is over 10 µM; with P. falciparum strain 3D7, 11 µM; with P. falciparum strain K1 (setting [4]) it was over 10 µM; in the assay with P. falciparum strain K1, 7.3 µM; in assay [1], over 25 µM.
